US5843750A, “Sorbitol kinase, process for producing the same, and substantially pure microorganism” (priority 1994, dated 1998)
Read-outs that look alike come from different tables or passages of the source.

What was measured:
sorbitol kinase [1] = target: T1, sorbitol kinase (Enterobacter ludwigii, UniProt A0AAX3LD49); assay type: biochemical, Erwinia sp. SK-472-20; parameters: SK-472-20; conditions: for Relative activity as phosphate donor: activity for ATP (final concentration 2 mM) set as 100%
T1 sequence (A0AAX3LD49 entry or part of it): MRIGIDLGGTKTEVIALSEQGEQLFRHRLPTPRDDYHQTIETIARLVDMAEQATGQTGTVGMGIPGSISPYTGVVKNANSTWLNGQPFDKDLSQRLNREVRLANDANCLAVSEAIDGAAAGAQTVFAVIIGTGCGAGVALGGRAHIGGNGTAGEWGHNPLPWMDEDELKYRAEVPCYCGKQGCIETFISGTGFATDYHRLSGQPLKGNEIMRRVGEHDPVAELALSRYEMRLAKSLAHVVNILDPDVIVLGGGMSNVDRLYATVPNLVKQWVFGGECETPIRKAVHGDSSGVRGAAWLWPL
Experimental: One milliliter of a reaction mixture consisting of 0.2M Tris-HCl buffer solution (pH 8.5) 0.2 ml, 0.1M ATP 0.02 ml, 0.1M MgCl2 0.02 ml, 100 U/ml sorbitol-6-phosphate dehydrogenase (refer to referential example) 0.05 ml, 10 mM NAD 0.1 ml, 100 U/ml diaphorase (Asahi Chemical Ind. Co.) 0.05 ml, 0.25% NTB 0.1 ml, 1M sorbitol 0.1 ml, 10% Triton X-100 0.01 ml and distilled water 0.3 ml was pre-heated at 37° C. for 1 minute, and the enzyme solution 20 μl was added thereto, then the mixture was incubated for 10 minutes.
Reaction was terminated by adding 0.1N HCl 2 ml and optical density of the mixture was measured using 1.0 cm cell at 550 nm within 5 minutes (As). Also optical density of distilled water 20 μl in place of the enzyme solution was measured in the same manner as above as a blank test (Ab). Enzymatic activity is determined by difference in the absorption between the optical density of the enzyme solution (As) and the blank test (Ab), i.e. (As-Ab). A unit of enzyme activity is defined as an amount of enzyme which generate 1 μm of reduced NAD in one minutes at 37° C. and calculated by the following equation.
Enzyme activity (U/ml)=(As-AB)×0.795×dilution rate of enzyme

[2] = system: sorbitol-6-phosphate dehydrogenase; assay type: biochemical, Comamonas sp. SY-77-1; conditions: for Relateive activity: 10 min; for Effect on sorbitol-6-phosphate dehydrogenase activity (in words): 1 mM metal ions; for Relative activity (5): substrate specificity of sorbitol-6-phosphate dehydrogenase, substance used as substrate
Experimental: Reaction mixture 1 ml consisting of 0.2M Tris-HCl buffer solution (pH 8.0) 0.25 ml, 0.1M sorbitol-6-phosphate 0.2 ml, 10 mM NAD 0.1 ml, 100 U/ml diaphorase (Asahi Chemical Industry Co.) 0.05 ml, 0.25% NTB (nitrotetrazolium blue) 0.1 ml, 10% Triton X-100 0.01 ml and distilled water 0.29 ml was pre-heated at 37° C. for 1 minute. 0.02 ml of enzyme solution was added thereto and incubated for 10 minutes.
0.1N HCl 2 ml was added to stop the reaction, and within 5 minutes optical absorption of the reaction mixture was measured using pass length 1.0 cm cell at 550 nm (As). Optical density of the blank solution of distilled water 0.02 ml in place of the enzyme solution was measured by the same procedure (Ab). Enzyme activity was measured by the difference (As-Ab) between the optical density of the enzyme solution (As) and that of the blank (Ab). A unit of enzyme is defined as an enzyme amount which produces 1μ mole of reduced NAD at 37° C. for 1 minute. Equation is as follows.
Enzyme activity (U/ml)=(As-Ab)×0.795×enzyme dilution rate

sorbitol kinase [3] = target: T1, sorbitol kinase; assay type: biochemical, Erwinia sp. SK-472-20 gene expressed in E.coli; parameters: no tag mentioned; conditions: for Relative activity on substrate: sorbitol set at 100%
Experimental: A reaction mixture 1 ml consisting of 100 mM Tris-HCl buffer solution (pH 8.5), 2 mM ATP, 2 mM MgCl2, 5 unit/ml sorbitol-6-phosphatedehydrogenase (refer to referential example 3), 1 mM NAD, 5 units/ml diaphorase (Asahi Chem. Ind. Co.), 0.025% nitrotetrazolium blue, 100 mMD-sorbitol and 0.1% Triton X-100 was incubated with the aliqluot diluted sonicated microbial cells 20 μl at 37° C. for 10 minutes. Reaction was stopped by adding 0.1N HCl 2.0 ml and the optical absorption at 550 nm was measured for determination of sorbitol kinase activity. For control study, sonicated E.coli DH1 harboring pUC118 was treated by the same way as above to determine activity of sorbitol kinase. […] Accordingly, the transformant having sorbitol kinase activity was confirmed. […] SK-472-20, consequently the physico-chemical properties of expressed protein was confirmed.

[4] = substrate specificity of sorbitol kinase, substance used as substrate
[5] = 1 mM metal ion on sorbitol-6-phosphate dehydrogenase, None = 100
[6] = metal ion or chemical modifier 2 mM in the presence of 2 mM magnesium ion, None = 100
[7] = enzyme produced by transformant
[8] = sorbitol-6-phosphate dehydrogenase

2-deoxyglucose
Relative activity (%) (sorbitol kinase [1]; [4]): 0%

Nc1ncnc2c1ncn2[C@@H]1O[C@H](COP(=O)(O)OP(=O)(O)OP(=O)(O)O)[C@@H](O)[C@H]1O [ATP]
Relative activity as phosphate donor (sorbitol kinase [1]): 100%

[Ba+2].[Cl-].[Cl-] [BaCl2]
Relateive activity [2, 5]: 32

[Ca+2].[Cl-].[Cl-] [CaCl2]
Relative activity (%) (sorbitol kinase [1]; [6]): 44.6% | Effect on enzyme activity (in words) (sorbitol kinase [3]; [7]): activated | Relateive activity [2, 5]: 100

[Cl-].[Cl-].[Co+2] [CoCl2]
Effect on sorbitol kinase activity (in words) (sorbitol kinase [1]; 2 mM, Table 2): inhibited | Relative activity (%) (sorbitol kinase [1]; [6]): 17.3% | Effect on enzyme activity (in words) (sorbitol kinase [3]; [7]): inhibited | Relateive activity [2, 5]: 100

[Cl-].[Cs+] [CsCl]
Relative activity (%) (sorbitol kinase [1]; [6]): 85% | Relateive activity [2, 5]: 100

[Cl][Cu][Cl] [CuCl2]
Effect on sorbitol kinase activity (in words) (sorbitol kinase [1]; 2 mM, Table 2): inhibited | Relative activity (%) (sorbitol kinase [1]; [6]): 0% | Effect on enzyme activity (in words) (sorbitol kinase [3]; [7]): inhibited | Relateive activity [2, 5]: 0 | Effect on sorbitol-6-phosphate dehydrogenase activity (in words) [2]: Strong inhibition

O=C(O)CN(CCN(CC(=O)O)CC(=O)O)CC(=O)O [EDTA]
Effect on sorbitol kinase activity (in words) (sorbitol kinase [1]): inhibited | Effect on enzyme activity (in words) (sorbitol kinase [3]): inhibited

O=C(CO)[C@@H](O)[C@H](O)[C@H](O)CO [Fructose]
Relative activity on substrate (sorbitol kinase [3]; [7]): 0% | Relative activity (5) [2]: 0

Nc1nc2c(ncn2[C@@H]2O[C@H](COP(=O)(O)OP(=O)(O)OP(=O)(O)O)[C@@H](O)[C@H]2O)c(=O)[nH]1 [GTP]
Relative activity as phosphate donor (sorbitol kinase [1]): 11.8%

O=P(O)(O)OC1O[C@H](CO)[C@H](O)[C@H](O)[C@H]1O (some centres unmarked) [Galactose-1-phosphate]
Relative activity (5) [2]: 0

O=P(O)(O)OC[C@H]1OC(O)[C@H](O)[C@@H](O)[C@@H]1O (some centres unmarked) [Glucose-6-phosphate]
Relative activity (5) [2]: 0

O=c1[nH]cnc2c1ncn2[C@@H]1O[C@H](COP(=O)(O)OP(=O)(O)OP(=O)(O)O)[C@@H](O)[C@H]1O [ITP]
Relative activity as phosphate donor (sorbitol kinase [1]): 40.5%

O[C@H]1[C@H](O)[C@@H](O)[C@H](O)[C@@H](O)[C@H]1O [Inositol]
Relative activity on substrate (sorbitol kinase [3]; [7]): 0%

[Cl-].[K+] [KCl]
Effect on sorbitol kinase activity (in words) (sorbitol kinase [1]; 2 mM, Table 2): activated | Relative activity (%) (sorbitol kinase [1]; [6]): 180% | Relateive activity [2, 5]: 100

OC[C@H]1O[C@@H](O[C@H]2[C@H](O)[C@@H](O)C(O)O[C@@H]2CO)[C@H](O)[C@@H](O)[C@H]1O (some centres unmarked) [Lactose]
Relative activity on substrate (sorbitol kinase [3]; [7]): 0% | Relative activity (5) [2]: 0

[Cl-].[Li+] [LiCl]
Relative activity (%) (sorbitol kinase [1]; [6]): 74.3% | Relateive activity [2, 5]: 100

OC[C@H]1O[C@H](O[C@H]2[C@H](O)[C@@H](O)[C@H](O)O[C@@H]2CO)[C@H](O)[C@@H](O)[C@@H]1O [Maltose]
Relative activity on substrate (sorbitol kinase [3]; [7]): 0%

OC[C@@H](O)[C@@H](O)[C@H](O)[C@H](O)CO [Mannitol]
Relative activity (5) [2]: 0

[Cl-].[Cl-].[Mg+2] [MgCl2]
Relateive activity [2, 5]: 100

[Cl][Mn][Cl] [MnCl2]
Relateive activity [2, 5]: 40

NC(=O)c1ccc[n+]([C@@H]2O[C@H](COP(=O)([O-])OP(=O)(O)OC[C@H]3O[C@@H](n4cnc5c(N)ncnc54)[C@H](O)[C@@H]3O)[C@@H](O)[C@H]2O)c1 [NAD]
Km [2, 8]: 130 ± 50 µM

[Cl-].[Na+] [NaCl]
Relative activity (%) (sorbitol kinase [1]): 112% | Relateive activity ([2]; sorbitol-6-phosphate dehydrogenase, 1000 µM): 100

[N-]=[N+]=[N-].[Na+] [NaN3]
Relative activity (%) (sorbitol kinase [1]; [6]): 123%

[Cl][Ni][Cl] [NiCl2]
Effect on sorbitol kinase activity (in words) (sorbitol kinase [1]; 2 mM, Table 2): inhibited | Relative activity (%) (sorbitol kinase [1]; [6]): 14.5% | Effect on enzyme activity (in words) (sorbitol kinase [3]; [7]): inhibited | Relateive activity [2, 5]: 100

[Cl][Pb][Cl] [PbCl2]
Relateive activity [2, 5]: 2 | Effect on sorbitol-6-phosphate dehydrogenase activity (in words) [2]: Strong inhibition

OC[C@H]1O[C@@](CO)(O[C@H]2O[C@H](CO)[C@@H](O)[C@H](O)[C@H]2O)[C@@H](O)[C@@H]1O [Saccharose]
Relative activity on substrate (sorbitol kinase [3]; [7]): 0% | Relative activity (5) [2]: 0

OC[C@@H](O)[C@@H](O)[C@H](O)[C@@H](O)CO [Sorbitol]
Relative activity on substrate (sorbitol kinase [3]; [7]): 100%

OC[C@H]1O[C@H](O[C@H]2O[C@H](CO)[C@@H](O)[C@H](O)[C@H]2O)[C@H](O)[C@@H](O)[C@@H]1O [Treharose]
Relative activity (5) [2]: 0

O=c1ccn([C@@H]2O[C@H](COP(=O)(O)OP(=O)(O)OP(=O)(O)O)[C@@H](O)[C@H]2O)c(=O)[nH]1 [UTP]
Relative activity as phosphate donor (sorbitol kinase [1]): 3.6%

[Cl-].[Cl-].[Zn+2] [ZnCl2]
Relateive activity [2, 5]: 6

O=C(COP(=O)(O)O)[C@@H](O)[C@H](O)[C@H](O)COP(=O)(O)O [fructose-1,6-diphosphate]
Relative activity (5) [2]: 0

O=P(O)(O)OC[C@H]1OC(O)[C@H](O)[C@@H](O)[C@H]1O (some centres unmarked) [galactose-6-phosphate]
Relative activity (5) [2]: 0

O=P(O)(O)OC1O[C@H](CO)[C@@H](O)[C@H](O)[C@H]1O (some centres unmarked) [glucose-1-phosphate]
Relative activity (5) [2]: 0

C=C(OP(=O)(O)O)C(=O)O [phosphoenolpyruvate]
Utilization as phosphate donor (sorbitol kinase [1]; phosphoenolpyruvate used in place of ATP in the enzyme assay): No substantial utilization | Utilization as phosphate donor (sorbitol kinase [3]; [7]): substantially not

O=P(O)(O)OC[C@@H](O)[C@@H](O)[C@H](O)[C@@H](O)CO [sorbitol-6-phosphate]
Km [2, 8]: 2000 ± 500 µM | Relative activity (5) [2]: 100

NC(=S)c1ccc[n+]([C@@H]2O[C@H](COP(=O)([O-])OP(=O)(O)OC[C@H]3O[C@@H](n4cnc5c(N)ncnc54)[C@H](O)[C@@H]3O)[C@@H](O)[C@H]2O)c1 [thio NAD]
Km [2, 8]: 140 ± 50 µM

Galactose
Relative activity (%) (sorbitol kinase [1]; [4]): 0% | Relative activity on substrate (sorbitol kinase [3]; [7]): 0% | Relative activity (5) [2]: 0

Glucose
Relative activity (%) (sorbitol kinase [1]; [4]): 0% | Relative activity on substrate (sorbitol kinase [3]; [7]): 0% | Relative activity (5) [2]: 0

Mannose
Relative activity (%) (sorbitol kinase [1]; [4]): 0% | Relative activity on substrate (sorbitol kinase [3]; [7]): 0% | Relative activity (5) [2]: 0

Xylose
Relative activity (%) (sorbitol kinase [1]; [4]): 0%
